Data: paper PMC10299677, “Fluorinated Benzofuran and Dihydrobenzofuran as Anti-Inflammatory and Potential Anticancer Agents” (International Journal of Molecular Sciences, 2023)

Tests used:
COX-2 protein expression = COX-2 protein expression in LPS-treated macrophages (Western blot); type: cell-based, C57BL/6J mice; conditions: 10 µM for compounds 1, 7, 9, 50 µM for others, LPS 24 h
Experimental: Figure 4 Effects of the fluorinated benzofuran and dihydrobenzofuran on COX-2 and NOS2 protein expressions. COX-2 and NOS2 protein expressions were assessed in macrophages incubated with only 10 µM for compounds 1, 7, and 9, and 50 µM for the other compounds, for 30 min prior to the addition of 10 ng/mL LPS for 24 h. β-actin was used as a loading control, and densitometric analysis was performed using ImageJ software (NIH, MA). Data are expressed as fold of LPS-treated macrophages and represented as mean ± SEM of 4 different experiments; * p < 0.05 versus LPS (one-way ANOVA followed by Dunnett’s test).
(§1) Macrophages were incubated with the compounds for 30 min prior to the addition of 10 ng/mL LPS for 24 h. Protein levels for COX-2 and NOS2 were detected in LPS-stimulated macrophages. As previously described, 10 µg of total protein was assessed. The primary antibodies were developed and characterized as previously described: for COX-2, mouse monoclonal antibody anti-COX-2 (clone COX-214, 1/5000); for NOS2, rabbit polyclonal antibody anti-NOS2 (dilution1/2000 [33]). Antibodies anti-phospho-NF-κB (3033S), phospho-IκBα (9246S), and total IκBα (4814S) were from Cell Signaling Technologies (Danvers, MA, USA). Total NF-κB C-20 (sc-372) was from Santa Cruz Biotechnologies (Dallas, TX, USA), and mouse β-actin (dilution 1/10,000) (Sigma-Aldrich, A5441). Clarity™ western ECL substrate (Bio-Rad Laboratories 10-5061) was used according to the manufacturer’s instructions to reveal positive bands visualized using Bio-Rad ChemiDoc. For Bcl-2 and cleaved PARP-1, HCT116 cells were plated in 6-well plates (200,000 cells per well) for 24 h, and treated with compounds 1 and 2 at 10, 25, and 50 µM for 72 h. Supernatants and cells were collected and lysed using RIPA lysis buffer containing inhibitors of protease. Western blot of Bcl-2 and cleaved PARP-1 was performed using 25 µg of total protein with a rabbit polyclonal antibody anti-Bcl-2 (1/500) (Santa Cruz Biotechnology, sc-492), rabbit polyclonal antibody anti-PARP-1 (1/1000) (Santa Cruz Biotechnology, sc-7150), and mouse anti-β-actin (dilution 1/10,000) (Sigma-Aldrich, A5441).
Densitometric analyses were performed using ImageJ software (NIH, MA, USA). The ratio of the different analyzed bands to β-actin was determined and data are represented as fold change compared to the LPS-treated cells. Percentage of viable cells for proliferation assay was determined as percentage to control (non-treated cells). For TUNEL assay, apoptotic cells were quantified, and results were expressed as percentage to positive cells (cleaved DNA) compared to control (non-treated cells). Statistical analysis was performed using one-way ANOVA, followed by Dunnett’s multiple comparisons test using GraphPad Prism software. Differences were considered significant when p < 0.05.

IL-6 mRNA = assay: LPS-dependent IL-6 mRNA in THP-1-derived macrophages (RT-PCR); type: cell-based, human; conditions: 50 µM, 10 ng/ml LPS 6 h
Experimental: F i g u re S3: Eff ect of benzofuran compounds on the lev els of LP S -dependent mRNA of CCL2 and IL-6 in THP-1 –deriv ed macrophages. Human-monoc yti c cell l ine-THP-1 wer e treat ed with PMA (25 nM for 48 hours) th en in cub ated with 50 μM compounds for 30 minutes b efo re the addit ion of 10 ng/ml LP S fo r 6 hours. Gene ex pression of IL6 and CCL2 were measur ed by RT-PCR and the v alu es wer e nor mal ized to GAPDH. Results represent means ± SEM by one way ANOVA followed by Dunnett test.

[1] = system: NF-κB or Iκ-Bα phosphorylation; assay: NF-κB and IκBα phosphorylation in LPS-treated macrophages (Western blot); type: cell-based, C57BL/6J mice; conditions: compounds 30 min prior to 1 h LPS
Experimental: as §1
F i g u re S4: Phosphorylation of NF-κB and IκBα kinetics in LPS-treated macrophages. (A) Kinetics of the phosphorylation of NF-κB and IκBα in macrophages. Cells were treated with 10 ng/mL LPS for different time points and protein expression was assessed by western blot. We determine that 1 hour incubation with LPS is efficient for the phosphorylation of NF-κB and IκBα phosphorylation; (B) Macrophages were treated with the tested compounds for 30 minutes prior to 1 hour-treatment with LPS. β-actin was used as a loading control and densitometric analysis was done ImageJ Software (NIH, MA). Data are ex pressed as fold of LPS-treated macrophages and represented as mean ± S.E.M. of 3 different experiments, *p<0.05 versus LPS (One-w a y Anova followed by the Dunnett’s test). […]

IL-6 = IL-6 release in LPS-treated macrophages (BMDM); type: cell-based, C57BL/6J mice; conditions: for decrease of IL-6 production: 50 µM, LPS 24 h; for IC50: Mus musculus, Macrophage, compounds 30 min prior to 10 ng/mL LPS for 24 h
Experimental: C57BL/6J (10–15 weeks old) male mice were obtained from the animal care facility at the American University of Beirut. All animal procedures were performed following the recommendations of the IACUC (Institutional Animal Care and Use Committee approval 16-09-M379). BMDMs were prepared and characterized as described previously by our group. BMDMs were isolated from C57BL/6J mice by flushing the femur and tibia with RPMI-1640 culture media (Sigma-Aldrich R7388), and cells were collected and centrifuged at 300× g for 5 min. The supernatant was discarded, and the pellet was resuspended in 2 mL red blood lysis 10% (Sigma-Aldrich R7767) medium in PBS and incubated for 5 min at room temperature. After diluting the suspension of cells with 5 mL of RPMI containing 10% FBS and 1% penicillin–streptomycin, cells were centrifuged at 300× g for 5 min, and the cell pellet was resuspended in RPMI media containing 10% FBS supplemented with 15% L929-conditioned medium containing macrophage-colony stimulating factor (M-CSF1) and plated on […]. Cells were allowed to proliferate and differentiate for 5–6 days. Cells were harvested, washed, and allowed to adhere overnight in RPMI containing 10% FBS for treatment. Cells were previously characterized by flow cytometry as macrophages using this method. […] Cells were plated at 0.8 × 10^6 cells per 3.8 cm^2 well [27].
BMDMs were then treated with different concentrations of the benzofuran and dihydrobenzofuran derivatives for 30 min prior to the addition of 10 ng/mL LPS for 24 h. […] The supernatants were assessed for IL-6, PGE2, CCL2, and nitrite, the stable derivative of NO, as described previously.
IL-6, CCL2, nitrite (for NO), and PGE2 concentrations from 3–5 independent experiments were expressed as percentage of LPS alone and as mean ± SEM. COX activity was determined as percentage of PGE2 produced from exogenous arachidonic acid. Curve fitting and calculation of IC50 values were performed using GraphPad Prism (version 9.5.1 Software, La Jolla, CA, USA).

Compound | effect on LPS-induced COX-2 protein expression (COX-2 protein expression) | effect on IL-6 mRNA levels (IL-6 mRNA) | effect on NF-κB or Iκ-Bα phosphorylation induced by LPS [1] | decrease of IL-6 production (IL-6) | IC50 (IL-6)
COC(=O)/C=C1/Oc2ccc(Br)cc2C1(F)F [Compound 1] | loss of this inhibitory effect | decreased significantly | did not modify |  | 
O=C(O)/C=C1/Oc2ccc(Br)cc2C1(F)F [Compound 2] | significantly decreased | decreased significantly | did not modify | more than 50% | 1.23 µM
O=C(O)/C=C1\Oc2ccc(Br)cc2C1(F)F [Compound 3] |  | to a lesser extent | did not modify | more than 50% | 5.21 µM
O=C(O)Cc1oc2ccc(-c3ccccc3)cc2c1F [Compound 5] | no effect |  |  |  | 
C=C(C)c1ccc2oc(CC(=O)O)c(F)c2c1 [Compound 6] | no effect |  |  |  | 
COC(=O)CC1(O)Oc2ccc(Br)cc2C1(F)F (centres unmarked) [Compound 8] |  |  | did not modify | more than 50% | 9.04 µM
